Series [1] can be described thus: Storage of solid forms at 40° C./75% RH or 25° C./97% RH. It counts as physicochemical. Conditions: for 7 days storage @ 40° C./75% RH: resulting form (XRPD): 7 days / one week, hydrochloride salt. The procedure: All retrieved solids from the crystallisation attempts were stored at 40° C. and 75% RH.
Assay in series [2]: as above
It counts as physicochemical. Particulars: for 7 days storage @ 40° C./75% RH: appearance: table prints 40° C./5% RH, hydrochloride salt.

Series [3] in a line: Organic (qualitative) solubility of Form 1 of Compound 2. It counts as physicochemical.
Series [4] is described as follows: Gravimetric Vapor Sorption (GVS). It counts as physicochemical. Particulars: 0 to 90% RH; methanesulfonate salt. An excerpt:
Gravimetric Vapor Sorption (GVS) isotherms were obtained using an SMS DVS Intrinsic moisture sorption analyser, controlled by DVS Intrinsic Control software v1.0.1.2 (or v 1.0.1.3), over a range of 0 to 90% relative humidity (RH).

Series [5] in a line: Aqueous solubility of Form 1 of Compound 2. It counts as physicochemical.
The nature of series [6]: Stability studies (accelerated, ICH). It counts as physicochemical. As for the experimental part: The compounds were assayed according to appearance, purity, related Substances, chiral purity, moisture, DSC, and XRPD
Series [7] in a line: Solubility and metastable limit curves (clear point / cloud point, Crystal16). It counts as physicochemical. The procedure: The samples were then cooled from 70 back to −8° C. at the same rate. The clear point upon heating (at 100% transmission) and the cloud point upon re-cooling (<100% transmission) were recorded using the Crystal16 instrument and the data is shown in Table 17. XRPD analysis was performed on all solids obtained post cooling.

A further series in a line: Forced degradation study. It counts as physicochemical.
Series [8] can be described thus: Form conversion on heating (thermal analysis / XRPD). It counts as physicochemical. Conditions: heated above 150° C. As for the experimental part: DSC data were collected on a TA Instruments Q2000 equipped with a 50 position auto-sampler. The calibration for thermal capacity was carried out using sapphire and the calibration for energy and temperature was carried out using certified indium. Typically 0.5-3 mg of each sample, in a pin-holed aluminium pan, was heated at 10° C./min from 25° C. to 300° C. A purge of dry nitrogen at 50 ml/min was maintained over the sample.

How the values of series [9] were obtained: After each addition of solvent, the system was shaken gently for 10 minutes at 50° C. and then allowed to stand at room temperature for 5 min before the addition of a new aliquot of solvent. After the assessment was completed, any suspensions obtained were matured and clear solutions were cooled at 5° C.

This note sets out measurements from patent US11459309B2, “Crystalline forms of a lysyl oxidase-like 2 inhibitor and methods of making” (PHARMAKEA, INC., priority 2016, dated 2022).

As to `Cl.NCc1cc(Oc2cccc(C(=O)N3C[C@@H](O)[C@H](F)C3)c2)nc(C(F)(F)F)c1` [Form 1 of Compound 1, (R,R)-trans-(3-((4-(aminomethyl)-6-(trifluoromethyl)pyridin-2-yl)oxy)phenyl)(3-fluoro-4-hydroxypyrrolidin-1-yl)methanone, hydrochloride salt], in [1], the hygroscopicity entry is reported as “hygroscopic solid” and the “7 days storage @ 40° C./75% RH: resulting form (XRPD)” value is recorded as “transforms to Form 2”. Further, the “behaviour on storage at 40° C. and 75% RH” value in [1] (after 24 hours) is “deliquescing”. In addition, the “7 days storage @ 40° C./75% RH: appearance” value in series [2] is listed as “Waxy/glassy”.

For orientation: Aqueous Solubility means how much of the substance goes into solution per volume. A low value points to a poorly soluble substance. For `CS(=O)(=O)O.NCc1cc(Oc2cccc(C(=O)N3C[C@@H](O)[C@H](F)C3)c2)nc(C(F)(F)F)c1` [Form 1 of Compound 2, (R,R)-trans-(3-((4-(aminomethyl)-6-(trifluoromethyl)pyridin-2-yl)oxy)phenyl)(3-fluoro-4-hydroxypyrrolidin-1-yl)methanone, methanesulfonate salt], in [1] (7 days at 40° C./75% RH and 25° C./97% RH), the “Polymorph stability on storage” value is reported as “stable for 7 days”. Also, the “Organic Solubility: Qualitative Solubility” value was no more than 10 mg/mL in series [3] (isopropyl acetate, isopropanol, methyl-ethyl ketone, acetone, ethanol, methyl-t-butyl ether, 1,4 dioxane, toluene, tetrahydrofuran, dichloromethane, acetonitrile) and greater than 200 mg/mL in series [3] (water, dimethyl sulfoxide). The “XRPD after the GVS analysis” value in [4] was “Unchanged”. Further, the “Aqueous Solubility” value is given as greater than 107 mg/mL in series [5] (pH 2), greater than 107 mg/mL in series [5] (pH 7.4) and greater than 85 mg/mL in series [5] (pH 10).

For `Cl.NCc1cc(Oc2cccc(C(=O)N3C[C@@H](O)[C@H](F)C3)c2)nc(C(F)(F)F)c1` [Compound 1, (R,R)-trans-(3-((4-(aminomethyl)-6-(trifluoromethyl)pyridin-2-yl)oxy)phenyl)(3-fluoro-4-hydroxypyrrolidin-1-yl)methanone, hydrochloride salt], the “3 month accelerated stability” value in [6] (40° C./75% RH, 3 month) is “no significant changes in purity or absorption of moisture”.

Take `CS(=O)(=O)O.NCc1cc(Oc2cccc(C(=O)N3C[C@@H](O)[C@H](F)C3)c2)nc(C(F)(F)F)c1` [Compound 2, (R,R)-trans-(3-((4-(aminomethyl)-6-(trifluoromethyl)pyridin-2-yl)oxy)phenyl)(3-fluoro-4-hydroxypyrrolidin-1-yl)methanone, methanesulfonate salt]: the “ICH stability, 1 month data” value in series [6] (long-term (25° C./60%) and accelerated (40° C./75%) conditions of 1-year and 2-year ICH studies) is “within limits for all attributes tested”. Besides, the “Clear Point Temperature” value is 6.9 °C in [7] (5 mg in 1 mL IPA:water 95:5); 20.3 °C in series [7] (10 mg in 1 mL IPA:water 95:5); 37.2 °C in [7] (20 mg in 1 mL IPA:water 95:5); 48.5 °C in series [7] (30 mg in 1 mL IPA:water 95:5); 55.8 °C in series [7] (40 mg in 1 mL IPA:water 95:5); 64 °C in series [7] (60 mg in 1 mL IPA:water 95:5). Moreover, the “Clear Point Temperature” value in series [7] (70 mg in 1 mL IPA:water 95:5) worked out at 68.6 °C. Besides, the “Cloud Point Temperature” value in series [7] (30 mg in 1 mL IPA:water 95:5) is −7.8 °C; in series [7] (40 mg in 1 mL IPA:water 95:5) it was −1.8 °C; in series [7] (60 mg in 1 mL IPA:water 95:5) it was 14.5 °C; in series [7] (70 mg in 1 mL IPA:water 95:5) it was 24.7 °C. In the series “Forced degradation study” (solid, 100° C., 24 hours), the “forced degradation, solid state, heat” value is recorded as “stable”. Further, the “forced degradation, solid state, light” value in the series “Forced degradation study” (solid, max 365 nm, 24 hours) is reported as “stable”. Besides, in “Forced degradation study” (solution, 50° C. for 24 hours), the “forced degradation, solution state, heat” value is recorded as “stable”.

For `CS(=O)(=O)O.NCc1cc(Oc2cccc(C(=O)N3C[C@@H](O)[C@H](F)C3)c2)nc(C(F)(F)F)c1` [Form 2 of Compound 2, (R,R)-trans-(3-((4-(aminomethyl)-6-(trifluoromethyl)pyridin-2-yl)oxy)phenyl)(3-fluoro-4-hydroxypyrrolidin-1-yl)methanone, methanesulfonate salt], the “form change after GVS analysis and storage” value in series [1] (after GVS analysis and 7 days at 40° C./75% RH) is listed as “phase transformation towards Form 1”. Also, the “form change in humidity” value in series [1] (humidity) is “converts to Form 1”. In [8], the “form change on heating” value was “can transform to Form 1”. In addition, in [2] (7 days at 25° C./97% RH), the “form change after storage” value is “change also occurs”.

With `Cl.NCc1cc(Oc2cccc(C(=O)N3C[C@@H](O)[C@H](F)C3)c2)nc(C(F)(F)F)c1` [Form 2 of Compound 1, (R,R)-trans-(3-((4-(aminomethyl)-6-(trifluoromethyl)pyridin-2-yl)oxy)phenyl)(3-fluoro-4-hydroxypyrrolidin-1-yl)methanone, hydrochloride salt], the “behaviour on storage conditions” value in [1] (1 week, 40° C. and 75% RH) was “remained unchanged”. Also, the “7 days storage @ 40° C./75% RH: resulting form (XRPD)” value in [1] is recorded as “Form 2”. For the same compound, the stability over time entry in [1] (thermally stable, over time) is listed as “converts over time to a waxy solid”. In series [2], the “7 days storage @ 40° C./75% RH: appearance” value is given as “Waxy/glassy”.

For `Cl.NCc1cc(Oc2cccc(C(=O)N3C[C@@H](O)[C@H](F)C3)c2)nc(C(F)(F)F)c1` [Amorphous Compound 1, (R,R)-trans-(3-((4-(aminomethyl)-6-(trifluoromethyl)pyridin-2-yl)oxy)phenyl)(3-fluoro-4-hydroxypyrrolidin-1-yl)methanone, hydrochloride salt], in series [9], the Solubility was 200-100. Besides, the “7 days storage @ 40° C./75% RH: appearance” value in [2] is recorded as “Glassy”.
